Where two headings read alike, the source gives them in different places.
Tests used:
Format in all cases: in vivo
[1] = tested on: Tryptamine; assay: Combined Apomorphine, Tryptamine and Norepinephrine (ATN) test in rats: tryptamine part; conditions: Rattus norvegicus
[2] = tested on: Norepinephrine; assay: Combined Apomorphine, Tryptamine and Norepinephrine (ATN) test in rats: norepinephrine part; conditions: Rattus norvegicus; read-out: Combined ATN test in rats ED₅₀ values (NOR)
Experimental: (§1) Int. Pharmacodyn. Ther., 227, 238-253, 1977. Further the activity of the subject compounds as serotonin antagonists is evidenced by the experimental data obtained in the "Gastric Lesions induced by compound 48/80 in rats" test, described in U.S.-4,335,127. […] All tests were carried out following the procedures described in the cited references and the experimental data are shown in Table 8.

[3] = tested on: Apomorphine; assay: Combined Apomorphine, Tryptamine and Norepinephrine (ATN) test in rats: apomorphine part; conditions: Rattus norvegicus; read-out: Combined ATN test in rats ED₅₀ values (APO)
[4] = tested on: compound 48/80; assay: Protection of Rats from compound 48/80 induced lethality (antihistaminic activity); conditions: Rattus norvegicus, read-out: Compound 48/80 tests ED₅₀ values Lethality
Experimental: as §1

[5] = tested on: compound 48/80; assay: Gastric Lesions induced by compound 48/80 in rats (serotonin antagonism); conditions: Rattus norvegicus, read-out: Compound 48/80 tests ED₅₀ values Gastric lesions
Experimental: as §1

[6] = tested on: Wistar rats; assay: Sleep-wakefulness patterns in the rat (polygraphic EEG/EOG/EMG recording); conditions: for MEAN DURATION OF EPISODES PS / MEAN DURATION OF EPISODES SWS1 / MEAN DURATION OF EPISODES SWS2 / MEAN DURATION OF EPISODES W / NUMBER OF EPISODES PS / NUMBER OF EPISODES SWS1 / NUMBER OF EPISODES SWS2 / NUMBER OF EPISODES W: means ± SEM of 10 rats
Experimental: Under pentobarbital anesthesia (50 mg/kg i.p.) 10 adult male Wistar rats weighing 240 to 260 g were chronically implanted for standard polygraphic recording of electroencephalogram (EEG), electro-oculogram (EOG) and electromyogram (EMG). After a 8-10 day recovery period from surgery and habituation to the recording conditions ( 12 h light-dark schedule, light on at 9:00 am.), pharmacological tests were started. The animals received 0.04, 0.16 or 0.63 mg/kg of compound 39 dissolved in 1 mM tartaric acid and injected i.p. at the onset of the light period. A minimum of 3 recovery days was allowed between two treatments. Polygraphic recordings were scored visually and classified as being either wakefulness (W), light slow wave sleep (SWS1), deep slow wave sleep (SWS2) or paradoxical sleep (PS). Sleep-wakefulness parameters were analyzed for each of the two successive 4 h periods following the treatment and compared to baseline (vehicle injection under the same conditions). The amounts of sleep and wakefulness states were expressed as percentage of baseline recordings which represented means of two baseline values per animal. Statistical tests were performed by means of the two-tailed Student t-test.

[7] = convulsions, read-out: Combined ATN test in rats ED₅₀ values (TRY) convulsions
[8] = hyperaemia, read-out: Combined ATN test in rats ED₅₀ values (TRY) hyperaemia
[9] = 0-4h after treatment, 0.04 mg/kg i.p.
[10] = 0-4h after treatment, 0.16 mg/kg i.p.
[11] = 0-4h after treatment, 0.63 mg/kg i.p.
[12] = 4-8h after treatment, 0.04 mg/kg i.p.
[13] = 4-8h after treatment, 0.16 mg/kg i.p.
[14] = 4-8h after treatment, 0.63 mg/kg i.p.

CCCNc1nc(C)c(CCN2CCN(c3nsc4ccccc34)CC2)c(=O)n1C [Compound 71]
ED50 [1, 7]: 0.08 mg/kg | ED50 [1, 8]: 0.005 mg/kg | ED50 [2]: 1.25 mg/kg | ED50 [3]: 0.08 mg/kg | ED50 [4]: 0.16 mg/kg | ED50 [5]: 0.63 mg/kg

CC(=O)Nc1nc(C)c(CCN2CCC(C(=O)c3ccc(F)cc3)CC2)c(=O)n1C [Compound 34]
ED50 [1, 7]: 0.31 mg/kg | ED50 [1, 8]: 0.005 mg/kg | ED50 [2]: 1.25 mg/kg | ED50 [3]: 0.31 mg/kg | ED50 [5]: 0.04 mg/kg

Cc1nc2n(C)ccn2c(=O)c1CCN1CCN(c2nsc3ccccc23)CC1 [Compound 124]
ED50 [1, 7]: 0.02 mg/kg | ED50 [1, 8]: 0.00125 mg/kg | ED50 [2]: 5 mg/kg | ED50 [3]: 0.08 mg/kg | ED50 [4]: 0.31 mg/kg | ED50 [5]: 0.04 mg/kg

Cc1nc2n(C)nc(C)n2c(=O)c1CCN1CCC(c2noc3cc(F)ccc23)CC1 [Compound 88]
ED50 [1, 7]: 0.08 mg/kg | ED50 [1, 8]: 0.00125 mg/kg | ED50 [2]: 0.16 mg/kg | ED50 [3]: 0.08 mg/kg | ED50 [5]: 0.04 mg/kg

CNc1nc(C)c(CCN2CCC(=C(c3ccc(F)cc3)c3ccc(F)cc3)CC2)c(=O)n1C [Compound 39, 5-[2-[4-[bis(4-fluorophenyl)methylene]-1-piperidinyl]ethyl]-3,6-dimethyl-2-(methylamino)-4(3H)-pyrimidinone]
MEAN DURATION OF EPISODES PS [6, 9]: 2.1 ± 0.2 min | MEAN DURATION OF EPISODES SWS1 [6, 9]: 0.8 ± 0.0 min | MEAN DURATION OF EPISODES SWS2 [6, 9]: 4.7 ± 0.5 min | MEAN DURATION OF EPISODES W [6, 9]: 2.6 ± 0.3 min | NUMBER OF EPISODES PS [6, 9]: 4±1 | NUMBER OF EPISODES SWS1 [6, 9]: 33±3 | NUMBER OF EPISODES SWS2 [6, 9]: 32±3 | NUMBER OF EPISODES W [6, 9]: 26±3 | MEAN DURATION OF EPISODES PS [6, 10]: 2.0 ± 0.3 min | MEAN DURATION OF EPISODES SWS1 [6, 10]: 0.9 ± 0.0 min | MEAN DURATION OF EPISODES SWS2 [6, 10]: 5.8 ± 0.5 min | MEAN DURATION OF EPISODES W [6, 10]: 2.9 ± 0.3 min | NUMBER OF EPISODES PS [6, 10]: 3±1 | NUMBER OF EPISODES SWS1 [6, 10]: 28±2 | NUMBER OF EPISODES SWS2 [6, 10]: 27±2 | NUMBER OF EPISODES W [6, 10]: 23±1 | MEAN DURATION OF EPISODES PS [6, 11]: 2.2 ± 0.4 min | MEAN DURATION OF EPISODES SWS1 [6, 11]: 0.8 ± 0.0 min | MEAN DURATION OF EPISODES SWS2 [6, 11]: 5.9 ± 0.4 min | MEAN DURATION OF EPISODES W [6, 11]: 2.7 ± 0.2 min | NUMBER OF EPISODES PS [6, 11]: 3±1 | NUMBER OF EPISODES SWS1 [6, 11]: 26±2 | NUMBER OF EPISODES SWS2 [6, 11]: 27±2 | NUMBER OF EPISODES W [6, 11]: 22±1 | doses giving significant effects ([6]; 0.04, 0.16 or 0.63 mg/kg i.p., two-tailed Student t-test): Significant effects were observed from the lowest dose upwards | dose-related response ([6]; 0.04 to 0.63 mg/kg i.p.): a clear dose-related response was obtained | sleep-wakefulness changes (SWS2, W, SWS1, PS) ([6]; 0.04 to 0.63 mg/kg i.p. at the onset of the light period, 8 h recording period): dose-dependent increase of SWS2 combined with a dose-related deficit in W, SWS1 and PS | SWS2 episodes: duration and number ([6]; 0.04 to 0.63 mg/kg i.p., summary of Table 7): marked prolongation of SWS2 episodes, whereas the number of episodes was reduced | MEAN DURATION OF EPISODES PS [6, 12]: 1.9 ± 0.1 min | MEAN DURATION OF EPISODES SWS1 [6, 12]: 0.7 ± 0.0 min | MEAN DURATION OF EPISODES SWS2 [6, 12]: 3.5 ± 0.2 min | MEAN DURATION OF EPISODES W [6, 12]: 2.0 ± 0.2 min | NUMBER OF EPISODES PS [6, 12]: 13±1 | NUMBER OF EPISODES SWS1 [6, 12]: 35±3 | NUMBER OF EPISODES SWS2 [6, 12]: 41±3 | NUMBER OF EPISODES W [6, 12]: 26±2 | MEAN DURATION OF EPISODES PS [6, 13]: 2.1 ± 0.1 min | MEAN DURATION OF EPISODES SWS1 [6, 13]: 0.7 ± 0.0 min | MEAN DURATION OF EPISODES SWS2 [6, 13]: 3.9 ± 0.3 min | MEAN DURATION OF EPISODES W [6, 13]: 2.0 ± 0.3 min | NUMBER OF EPISODES PS [6, 13]: 12±1 | NUMBER OF EPISODES SWS1 [6, 13]: 35±2 | NUMBER OF EPISODES SWS2 [6, 13]: 39±2 | NUMBER OF EPISODES W [6, 13]: 23±2 | MEAN DURATION OF EPISODES PS [6, 14]: 2.1 ± 0.1 min | MEAN DURATION OF EPISODES SWS1 [6, 14]: 0.7 ± 0.0 min | MEAN DURATION OF EPISODES SWS2 [6, 14]: 3.7 ± 0.2 min | MEAN DURATION OF EPISODES W [6, 14]: 1.9 ± 0.2 min | NUMBER OF EPISODES PS [6, 14]: 12±1 | NUMBER OF EPISODES SWS1 [6, 14]: 34±2 | NUMBER OF EPISODES SWS2 [6, 14]: 40±2 | NUMBER OF EPISODES W [6, 14]: 26±2 | effective dose, lower than that of ritanserin by ([6]; comparison with ritanserin): 10 fold | sleep-wakefulness response ([6]; doses of 0.04 and 0.16 mg/kg i.p.): significant sleep-wakefulness response

Cc1nc2n(c(=O)c1CCN1CCN(c3noc4ccccc34)CC1)CCCN2C [Compound 120]
ED50 [1, 7]: 0.08 mg/kg | ED50 [1, 8]: 0.02 mg/kg | ED50 [2]: 1.25 mg/kg | ED50 [3]: 0.02 mg/kg | ED50 [4]: 0.01 mg/kg | ED50 [5]: 0.63 mg/kg

Cc1nc2n(C)c(C)cn2c(=O)c1CCN1CCN(c2noc3ccccc23)CC1 [Compound 111]
ED50 [1, 7]: 0.31 mg/kg | ED50 [1, 8]: 0.005 mg/kg | ED50 [2]: 0.31 mg/kg | ED50 [3]: 0.08 mg/kg | ED50 [5]: 0.16 mg/kg

Cc1nc2n(C)nc(C)n2c(=O)c1CCN1CCN(c2noc3ccccc23)CC1 [Compound 113]
ED50 [1, 7]: 0.31 mg/kg | ED50 [1, 8]: 0.005 mg/kg | ED50 [2]: 1.25 mg/kg | ED50 [3]: 0.08 mg/kg | ED50 [5]: 0.08 mg/kg

CCNc1nc(C)c(CCN2CCN(c3noc4ccccc34)CC2)c(=O)n1C [Compound 69]
ED50 [1, 7]: 0.31 mg/kg | ED50 [1, 8]: 0.00125 mg/kg | ED50 [2]: 0.31 mg/kg | ED50 [3]: 0.08 mg/kg | ED50 [4]: 0.02 mg/kg | ED50 [5]: 0.00125 mg/kg

CC1=NN(C)c2nc(C)c(CCN3CCC(c4noc5cc(F)ccc45)CC3)c(=O)n2C1 [Compound 86]
ED50 [1, 7]: 0.04 mg/kg | ED50 [1, 8]: 0.00125 mg/kg | ED50 [2]: 0.08 mg/kg | ED50 [3]: 0.04 mg/kg | ED50 [5]: 0.02 mg/kg

Cc1nc2n(C)ncn2c(=O)c1CCN1CCN(c2noc3ccccc23)CC1 [Compound 114]
ED50 [1, 7]: 0.31 mg/kg | ED50 [1, 8]: ≤ 0.04 mg/kg | ED50 [2]: 1.25 mg/kg | ED50 [3]: 0.08 mg/kg | ED50 [5]: 0.16 mg/kg

Cc1nc2n(C)ccn2c(=O)c1CCN1CCC(c2noc3cc(F)ccc23)CC1 [Compound 77]
ED50 [1, 7]: 0.04 mg/kg | ED50 [1, 8]: ≤ 0.00063 mg/kg | ED50 [2]: 0.16 mg/kg | ED50 [3]: 0.04 mg/kg | ED50 [4]: 0.005 mg/kg | ED50 [5]: 0.04 mg/kg

Cc1nc2n(c(=O)c1CCN1CCC(c3noc4cc(F)ccc34)CC1)CCN2C [Compound 80]
ED50 [1, 7]: 0.08 mg/kg | ED50 [1, 8]: 0.00125 mg/kg | ED50 [2]: 0.31 mg/kg | ED50 [3]: 0.08 mg/kg | ED50 [4]: 0.005 mg/kg | ED50 [5]: 0.04 mg/kg

Cc1nc2n(c(=O)c1CCN1CCN(c3noc4ccccc34)CC1)CCN2C [Compound 115]
ED50 [1, 7]: 0.31 mg/kg | ED50 [1, 8]: 0.005 mg/kg | ED50 [2]: 1.25 mg/kg | ED50 [3]: 0.08 mg/kg | ED50 [4]: 0.04 mg/kg | ED50 [5]: 0.02 mg/kg

CC1=NN(C)c2nc(C)c(CCN3CCN(c4noc5ccccc45)CC3)c(=O)n2C1 [Compound 112]
ED50 [1, 7]: 0.31 mg/kg | ED50 [1, 8]: 0.005 mg/kg | ED50 [2]: 0.63 mg/kg | ED50 [3]: 0.08 mg/kg | ED50 [4]: 0.16 mg/kg | ED50 [5]: 0.04 mg/kg

Cc1nc(NCc2ccccn2)n(C)c(=O)c1CCN1CCC(c2noc3cc(F)ccc23)CC1 [Compound 19]
ED50 [1, 7]: 0.31 mg/kg | ED50 [1, 8]: 0.0025 mg/kg | ED50 [2]: 0.08 mg/kg | ED50 [3]: 0.08 mg/kg | ED50 [5]: 0.04 mg/kg

From patent EP0378255B1, “2-Aminopyrimidinone derivatives” (JANSSEN PHARMACEUTICA N.V., priority 1989, dated 1990)
